Several values for one entry are separate records, joined by “and”; a condition that tells them apart may be missing. Equal values may be shown once.
Settings: Liquid, Hot wire method

FC(F)CC(F)(F)F [1,1,1,3,3-pentafluoropropane]
Settings | thermal conductivity
222.11 K, 10047 kPa | 0.1156 W/m/K
222.11 K, 15756 kPa | 0.117 W/m/K
222.12 K, 15761 kPa | 0.1169 W/m/K
222.12 K, 21261 kPa | 0.1184 W/m/K
222.12 K, 21267 kPa | 0.1186 W/m/K
222.13 K, 27470 kPa | 0.1201 W/m/K
222.13 K, 27478 kPa | 0.1202 W/m/K
222.13 K, 33686 kPa | 0.1212 W/m/K
222.16 K, 33712 kPa | 0.1215 W/m/K
222.37 K, 39767 kPa | 0.1235 W/m/K
222.37 K, 47190 kPa | 0.1251 W/m/K
222.38 K, 39761 kPa | 0.1235 W/m/K
222.38 K, 47197 kPa | 0.125 W/m/K
222.38 K, 54316 kPa | 0.1267 W/m/K
222.38 K, 54318 kPa | 0.1267 W/m/K
222.38 K, 61389 kPa | 0.1284 W/m/K
222.38 K, 67942 kPa | 0.1297 W/m/K
222.39 K, 61385 kPa | 0.1283 W/m/K
222.39 K, 67938 kPa | 0.1298 W/m/K
222.5 K, 255 kPa | 0.1121 W/m/K
222.5 K, 4863 kPa | 0.1134 W/m/K
222.5 K, 4873 kPa | 0.1134 W/m/K
222.51 K, 9999 kPa | 0.1152 W/m/K
222.51 K, 10021 kPa | 0.1152 W/m/K
222.51 K, 15761 kPa | 0.1166 W/m/K
222.51 K, 15763 kPa | 0.1166 W/m/K
222.51 K, 21262 kPa | 0.1182 W/m/K
222.51 K, 21266 kPa | 0.1185 W/m/K
222.51 K, 27487 kPa | 0.12 W/m/K
222.52 K, 245 kPa | 0.112 W/m/K
222.52 K, 27479 kPa | 0.1198 W/m/K
222.52 K, 33833 kPa | 0.1215 W/m/K
222.53 K, 33800 kPa | 0.1213 W/m/K
222.77 K, 67930 kPa | 0.1298 W/m/K
222.78 K, 39758 kPa | 0.1234 W/m/K
222.78 K, 39765 kPa | 0.1236 W/m/K
222.78 K, 47189 kPa | 0.1249 W/m/K
222.78 K, 47193 kPa | 0.125 W/m/K
222.78 K, 54318 kPa | 0.1265 W/m/K
222.78 K, 54319 kPa | 0.1266 W/m/K
222.78 K, 61395 kPa | 0.1281 W/m/K
222.78 K, 61401 kPa | 0.1282 W/m/K
222.78 K, 67928 kPa | 0.1296 W/m/K
222.94 K, 4870 kPa | 0.113 W/m/K
222.94 K, 10017 kPa | 0.1147 W/m/K
222.94 K, 10023 kPa | 0.1147 W/m/K
222.94 K, 15762 kPa | 0.1162 W/m/K
222.94 K, 15767 kPa | 0.1163 W/m/K
222.94 K, 21269 kPa | 0.1181 W/m/K
222.94 K, 21277 kPa | 0.118 W/m/K
222.94 K, 27478 kPa | 0.1199 W/m/K
222.94 K, 27487 kPa | 0.1197 W/m/K
222.94 K, 33837 kPa | 0.1213 W/m/K
222.94 K, 33847 kPa | 0.1213 W/m/K
222.95 K, 242 kPa | 0.1115 W/m/K
222.95 K, 262 kPa | 0.1116 W/m/K
222.95 K, 4862 kPa | 0.113 W/m/K
223.19 K, 67923 kPa | 0.1295 W/m/K
223.2 K, 61398 kPa | 0.128 W/m/K
223.2 K, 67921 kPa | 0.1295 W/m/K
223.21 K, 54306 kPa | 0.1263 W/m/K
223.21 K, 61402 kPa | 0.128 W/m/K
223.22 K, 39767 kPa | 0.1231 W/m/K
223.22 K, 47186 kPa | 0.1248 W/m/K
223.22 K, 47187 kPa | 0.1248 W/m/K
223.22 K, 54313 kPa | 0.1265 W/m/K
223.23 K, 39773 kPa | 0.1231 W/m/K
223.38 K, 33868 kPa | 0.1211 W/m/K
223.39 K, 33861 kPa | 0.1211 W/m/K
223.4 K, 21286 kPa | 0.1177 W/m/K
223.4 K, 27486 kPa | 0.1196 W/m/K
223.4 K, 27487 kPa | 0.1195 W/m/K
223.41 K, 15762 kPa | 0.1159 W/m/K
223.41 K, 15769 kPa | 0.1159 W/m/K
223.41 K, 21280 kPa | 0.1178 W/m/K
223.42 K, 4862 kPa | 0.1127 W/m/K
223.42 K, 4869 kPa | 0.1127 W/m/K
223.42 K, 10011 kPa | 0.1143 W/m/K
223.42 K, 10015 kPa | 0.1145 W/m/K
223.43 K, 243 kPa | 0.1111 W/m/K
223.43 K, 251 kPa | 0.1111 W/m/K
223.65 K, 67907 kPa | 0.1291 W/m/K
223.65 K, 67916 kPa | 0.1294 W/m/K
223.66 K, 61399 kPa | 0.1279 W/m/K
223.67 K, 61396 kPa | 0.1278 W/m/K
223.68 K, 54302 kPa | 0.1262 W/m/K
223.68 K, 54305 kPa | 0.1261 W/m/K
223.69 K, 47183 kPa | 0.1247 W/m/K
223.69 K, 47193 kPa | 0.1247 W/m/K
223.7 K, 39777 kPa | 0.123 W/m/K
223.71 K, 39772 kPa | 0.1229 W/m/K
223.87 K, 33885 kPa | 0.1209 W/m/K
223.88 K, 33873 kPa | 0.1209 W/m/K
241.3 K, 9886 kPa | 0.1092 W/m/K
241.3 K, 15301 kPa | 0.1111 W/m/K
241.31 K, 9877 kPa | 0.1094 W/m/K
241.32 K, 21013 kPa | 0.1123 W/m/K
241.32 K, 21021 kPa | 0.1121 W/m/K
241.33 K, 33388 kPa | 0.115 W/m/K
241.34 K, 33390 kPa | 0.1153 W/m/K
241.35 K, 26974 kPa | 0.1134 W/m/K
241.35 K, 26975 kPa | 0.1134 W/m/K
241.35 K, 46711 kPa | 0.1187 W/m/K
241.35 K, 46714 kPa | 0.1192 W/m/K
241.36 K, 39784 kPa | 0.1173 W/m/K
241.37 K, 297 kPa | 0.1065 W/m/K and 0.1069 W/m/K
241.37 K, 4974 kPa | 0.1077 W/m/K
241.37 K, 39780 kPa | 0.1174 W/m/K
241.38 K, 4982 kPa | 0.1074 W/m/K
241.38 K, 53704 kPa | 0.1209 W/m/K
241.38 K, 53707 kPa | 0.1206 W/m/K
241.41 K, 61279 kPa | 0.1222 W/m/K
241.43 K, 68711 kPa | 0.1241 W/m/K
241.43 K, 68724 kPa | 0.1238 W/m/K
241.68 K, 15290 kPa | 0.1103 W/m/K
241.69 K, 9889 kPa | 0.1088 W/m/K
241.69 K, 9892 kPa | 0.1093 W/m/K
241.69 K, 15293 kPa | 0.1107 W/m/K
241.69 K, 21027 kPa | 0.1119 W/m/K
241.69 K, 21032 kPa | 0.1126 W/m/K
241.7 K, 33378 kPa | 0.1158 W/m/K
241.7 K, 33381 kPa | 0.1154 W/m/K
241.7 K, 46707 kPa | 0.1184 W/m/K
241.71 K, 26968 kPa | 0.1137 W/m/K
241.71 K, 26981 kPa | 0.1139 W/m/K
241.71 K, 46714 kPa | 0.1189 W/m/K
241.72 K, 39777 kPa | 0.117 W/m/K
241.73 K, 39791 kPa | 0.1169 W/m/K
241.73 K, 53687 kPa | 0.1208 W/m/K
241.73 K, 53704 kPa | 0.1206 W/m/K
241.75 K, 61249 kPa | 0.1223 W/m/K
241.75 K, 61272 kPa | 0.1223 W/m/K
241.76 K, 296 kPa | 0.1058 W/m/K
241.76 K, 303 kPa | 0.1061 W/m/K
241.76 K, 4987 kPa | 0.108 W/m/K
241.77 K, 4997 kPa | 0.1079 W/m/K
241.77 K, 68669 kPa | 0.1236 W/m/K
241.78 K, 68692 kPa | 0.1241 W/m/K
